# Test results published in US5298523A, “Method for treating transplant patients using mycalamide compounds” (priority 1992, dated 1994).
# Key:
# [1] = test system: murine CD4^+ T cells; assay: Activation of CD4+ T cells by PMA/mB7; assay type: cell-based, murine (BALB/c); conditions: in words
# Method: (A) Costimulation of T cells with anti-CD3 mAb and mB7. […] (B) Costimulation of T cells with mB7 and PMA. […] All cultures were incubated for 48 hours and pulsed with 1 μCi [ ^3 H] thymidine/well for the last 6 hours of the incubation period to assay for T cell proliferation.
# (A) Costimulation of T cells with anti-CD3 mAb and mB7. 2×10^5 purified BALB/c CD4^+ T lymphocytes were stimulated with the indicated concentrations of anti-CD3 mAb in the presence of medium (.largecircle.), 2×10^4 paraformaldehyde-fixed CHO-mB7 cells (.quadrature.), or 2×10^4 paraformaldehyde-fixed CHO-mB7 cells in the presence of 0.1 nM FK506 (.gradient.), 1 nM FK506 (Δ), or 10 nM FK506 ( ). (B) Costimulation of T cells with mB7 and PMA. 2×10^5 purified BALB/c CD4^+ T lymphocytes were stimulated with the indicated concentrations of PMA and either medium (.largecircle.), 2×10^4 paraformaldehyde-fixed CHO-mB7 cells (.quadrature.), or paraformaldehyde-fixed CHO-mB7 cells in the presence of 0.1 nM FK506 (.gradient.), 1 nM FK506 (Δ), or 10 nM FK506 ( ). All cultures were incubated for 48 hours and pulsed with 1 μCi [^3 H] thymidine/well for the last 6 hours of the incubation period to assay for T cell proliferation.
# (A) Costimulation of T cells with anti-CD3 mAb and mB7. […]
# [2] = test system: graft vs. host reaction, CB6F1 mice grafted with BALB/c splenocytes; assay: Graft vs. host reaction (Simonsen splenomegaly assay); assay type: in vivo, mouse; conditions: for % Suppression / Number of surviving mice at the end of the experiment / Stim. index: Days 1-7
# Method: Graft vs. host reaction. In vivo studies with mycalamide A utilized the […]→F1, GVHR model (Simonsen splenomegaly assay). CB6F1 male mice, 4 weeks of age, were injected intraperitoneally with 5×10^7 splenocytes from BALB/c male mice, 8 weeks of age, on day 0 (BALB/c→CB6F1). A syngeneic control group (CB6F1 →CB6F1) was similarly prepared and served as the negative control. For experiment 1, the grafted mice were divided into 5 treatment groups of 5 mice each. Groups were injected intraperitoneally with mycalamide A (dissolved initially in ethanol followed by dilution in sterile phosphate-buffered saline as a vehicle) or vehicle alone on days 1-7. For experiment 2, the grafted mice were divided into 7 treatment groups of 5 mice each and similarly injected intraperitoneally with mycalamide A, an immunosuppressive standard, didemnin B, or vehicle alone on days 1-7. On day 7 all groups were sacrificed, spleens excised, and the mean spleen weight and stimulation index calculated for each group. The stimulation index was calculated as follows: [formula] A spleen index of 1.3 or greater is considered a positive response.
# ^a CB6F1 mice (5 per group) were grafted with 5 × 10^7
# BALB/c splenocytes, intraperitoneally on Day 0. Groups were injected
# intraperitoneally with drug or vehicle on Days 1-7. Positive indicates
# grafted mice receiving vehicle alone.
# ^b Number of surviving mice at the end of the experiment.
# ^c Stimulation index (SI) = (spleen weight of test group/body weight
# of test group)/(spleen weight of syngeneic group/body weight of syngeneic
# ^d Suppression = [(SI of positive control) (SI of test group)]/[(SI
# of positive control) (SI of syngeneic group)].
# ^e Didemnin B immunosuppressive standard.
# [3] = Experiment #2, 0.005 mg/kg i.p.
smiles,measurement,setting,value
"C=C1CC(OC)(C(O)C(=O)NC2OCOC3C2OC(CC(O)CO)C(C)(C)C3OC)OC(C)C1C (centres unmarked) [Mycalamide A, mycalamide A]",effect on PMA/CHO-mB7 stimulation of CD4+ cells,[1],blocks activation
same,% Suppression,"[2]; Experiment #1, 0.01 mg/kg i.p.",102%
same,Number of surviving mice at the end of the experiment,"[2]; Experiment #1, 0.01 mg/kg i.p.",5/5
same,Stim. index,"[2]; Experiment #1, 0.01 mg/kg i.p.",0.99
same,% Suppression,"[2]; Experiment #1, 0.05 mg/kg i.p.",0%
same,Number of surviving mice at the end of the experiment,"[2]; Experiment #1, 0.05 mg/kg i.p.",0/5
same,% Suppression,"[2]; Experiment #1, 0.1 mg/kg i.p.",0%
same,Number of surviving mice at the end of the experiment,"[2]; Experiment #1, 0.1 mg/kg i.p.",0/5
same,% Suppression,[2]; [3],0%
same,Number of surviving mice at the end of the experiment,[2]; [3],5/5
same,Stim. index,[2]; [3],1.92
same,% Suppression,"[2]; Experiment #2, 0.01 mg/kg i.p.",88%
same,Number of surviving mice at the end of the experiment,"[2]; Experiment #2, 0.01 mg/kg i.p.",5/5
same,Stim. index,"[2]; Experiment #2, 0.01 mg/kg i.p.",1.06
same,% Suppression,"[2]; Experiment #2, 0.05 mg/kg i.p.",0%
same,Number of surviving mice at the end of the experiment,"[2]; Experiment #2, 0.05 mg/kg i.p.",0/5
same,% Suppression,"[2]; Experiment #2, 0.1 mg/kg i.p.",0%
same,Number of surviving mice at the end of the experiment,"[2]; Experiment #2, 0.1 mg/kg i.p.",0/5
same,toxicity in mice,"[2]; dosages higher than 0.01 mg/kg i.p., in words",toxic
same,immunosuppression in GVHR,"[2]; dosages lower than 0.01 mg/kg i.p., in words",not immunosuppressive
